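Protocol summary: plate cells (96-well), add compound at 5 concentrations, incubate 48 h, interpolate endpoints linearly. GI50 = concentration required for 50% inhibition of growth. The concentration for full growth arrest is given as TGI.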
Key:
Experiment in all cases: NCI anticancer screen, dose series, 48 h
[1] = tested on: LXFL 529 NSCLC
[2] = tested on: SNB-78 CNS
[3] = tested on: DLD-1 colon
[4] = tested on: DMS 273 small cell lung
[5] = tested on: RXF-631 renal
[6] = tested on: HOP-18 NSCLC
[7] = tested on: KM20L2 colon
[8] = tested on: MDA-N

## CCOC(=O)c1oc2ccc(OC)c3c2c1CCC3
[1]
  TGI: > 100 µM
[2]
  TGI: > 100 µM
[3]
  TGI: > 100 µM
[4]
  TGI: > 100 µM

## COc1cc2c(cc1OC(=O)CC(C)O)C1C(OC2=O)C(OC(C)=O)C=C2CCN(C)[C@H]21 (stereo partly specified)
[1]
  TGI: > 100 µM
[5]
  TGI: 93.9 µM
[2]
  TGI: 68.8 µM
[3]
  TGI: > 100 µM
[6]
  TGI: 69.4 µM
[4]
  TGI: > 100 µM
[7]
  TGI: > 100 µM

## O=C1C=C(Br)c2c(-c3ccccc3)oc3cccc1c23
[8]
  TGI: 66 µM
[1]
  TGI: > 100 µM
[5]
  TGI: > 100 µM
[2]
  TGI: > 100 µM
[3]
  TGI: > 100 µM
[6]
  TGI: > 100 µM
[4]
  TGI: > 100 µM
[7]
  TGI: > 100 µM

## CCOC(=O)C1Oc2ccc([N+](=O)[O-])c3c2C1(O)CCC3 (stereo unspecified)
[1]
  TGI: > 100 µM
[5]
  TGI: > 100 µM
[2]
  TGI: > 100 µM
[3]
  TGI: > 100 µM
[4]
  TGI: > 100 µM

## COc1ccc(N=c2ssc3c(=S)ssc23)cc1
[1]
  TGI: 31.9 µM
[2]
  TGI: 99.4 µM
[3]
  TGI: 54.5 µM
[4]
  TGI: 74.4 µM

## N#CC(C(=O)CCC(=O)Nc1cccc(Cl)c1)c1ccccc1 (stereo unspecified)
[1]
  TGI: > 100 µM
[5]
  TGI: > 100 µM
[2]
  TGI: > 100 µM
[3]
  TGI: > 100 µM
[6]
  TGI: > 100 µM
[4]
  TGI: > 100 µM
[7]
  TGI: > 100 µM

## CCOC(=O)C1=C(NC)OC/C1=N\NC(=O)c1ccccc1O
[1]
  TGI: > 100 µM
[2]
  TGI: > 100 µM
[3]
  TGI: > 100 µM
[6]
  TGI: > 100 µM
[4]
  TGI: > 100 µM
[7]
  TGI: > 100 µM

## COc1cc(C(=O)C/C(CCC(=O)Nc2ccccc2[N+](=O)[O-])=N\NC(=O)CC#N)ccc1O
[1]
  TGI: > 100 µM
[5]
  TGI: > 100 µM
[3]
  TGI: > 100 µM
[6]
  TGI: > 100 µM
[4]
  TGI: > 100 µM
[7]
  TGI: > 100 µM

## CCC1CN2CCc3cc(OC)c(OC)cc3C2CC1CC1c2cc(OC)c(OC)cc2CCN1C(=O)C1CCCN1C(=O)OCc1ccccc1 (stereo unspecified)
[1]
  TGI: 29.9 µM
[5]
  TGI: 33.9 µM
[2]
  TGI: 31.2 µM
[3]
  TGI: 31 µM
[6]
  TGI: 53.7 µM
[4]
  TGI: 30.3 µM
[7]
  TGI: 31.4 µM

## CCCCNCC(=O)O[C@]1(CC)C(=O)OCc2c1cc1n(c2=O)Cc2cc3ccccc3nc2-1
[8]
  TGI: 23.1 µM
[1]
  TGI: 56.8 µM
[5]
  TGI: 6.9 µM
[2]
  TGI: > 100 µM
[3]
  TGI: > 100 µM
[6]
  TGI: 48.9 µM
[4]
  TGI: 0.236 µM
[7]
  TGI: > 100 µM

## Cn1cnc2nc(Cl)nc(NC(C)(C)C(C)(C)O)c21
[2]
  TGI: > 100 µM
[3]
  TGI: > 100 µM
[6]
  TGI: > 100 µM
[4]
  TGI: > 100 µM
[7]
  TGI: > 100 µM

## C=CCOC1OC(CO[Si](C)(C)C(C)(C)C)C(OCc2ccccc2)C(OCc2ccccc2)C1OCc1ccccc1 (stereo unspecified)
[8]
  TGI: > 100 µM

## CC(=O)OC1CCn2nnc(CO[Si](C)(C)C(C)(C)C)c21 (stereo unspecified)
[1]
  TGI: > 100 µM
[3]
  TGI: > 100 µM
[6]
  TGI: > 100 µM
[4]
  TGI: > 100 µM
[7]
  TGI: > 100 µM

## COc1ccc(C2=C(Cl)c3cc(OC)c(OC)cc3C2Cl)cc1OC (stereo unspecified)
[5]
  TGI: 44.4 µM
[2]
  TGI: 75.5 µM
[3]
  TGI: 34.9 µM
[6]
  TGI: 55.6 µM
[4]
  TGI: 30.4 µM
[7]
  TGI: 29.5 µM

## COc1cccc(C=Nc2cc(C)ccn2)c1O.COc1cccc(C=Nc2cc(C)ccn2)c1O.[Cu]
[8]
  GI50: 16.3 µM
  TGI: 41.3 µM

## O=C(O)C1(P(=O)(O)O)CC1
[1]
  TGI: > 100 µM
[2]
  TGI: > 100 µM
[3]
  TGI: > 100 µM
[6]
  TGI: > 100 µM
[4]
  TGI: > 100 µM
[7]
  TGI: > 100 µM

## C[Si](C)(C)OC1(C#N)C2C3CC4C2C(=O)C2C4C3C21 (stereo unspecified)
[1]
  TGI: > 100 µM
[2]
  TGI: > 100 µM
[3]
  TGI: > 100 µM
[6]
  TGI: > 100 µM
[4]
  TGI: > 100 µM
[7]
  TGI: > 100 µM

## Cc1cc2c(C)n(Cc3ccc(Cl)cc3Cl)nc2c(C#N)c1C
[1]
  TGI: > 100 µM
[2]
  TGI: > 76.4 µM
[3]
  TGI: > 100 µM
[6]
  TGI: > 91.6 µM
[4]
  TGI: > 100 µM
[7]
  TGI: > 56.9 µM

## Nn1c(-c2ccccc2Cl)nc2ccccc2c1=O
[1]
  TGI: > 100 µM
[5]
  TGI: > 100 µM
[2]
  TGI: > 100 µM
[3]
  TGI: > 100 µM
[6]
  TGI: > 100 µM
[4]
  TGI: > 100 µM
[7]
  TGI: > 100 µM

## O=C1C(=O)N(c2ccc(Cl)c(Cl)c2)C(=O)C(=O)C1c1nc2ccccc2s1
[1]
  TGI: > 100 µM
[2]
  TGI: > 100 µM
[3]
  TGI: > 100 µM
[6]
  TGI: > 100 µM
[4]
  TGI: > 100 µM
[7]
  TGI: > 100 µM

## CCCCCCc1cc(C(=O)Nc2cccc(C(F)(F)F)c2)nc(N)n1
[1]
  TGI: > 100 µM
[5]
  TGI: > 100 µM
[2]
  TGI: > 100 µM
[3]
  TGI: > 100 µM
[6]
  TGI: > 100 µM
[4]
  TGI: > 100 µM
[7]
  TGI: > 100 µM

## CCCCCCCCCCCC(=O)OCCOCCOCCOCCOCCOCc1ccc(OC)cc1
[1]
  TGI: > 100 µM
[5]
  TGI: > 100 µM
[2]
  TGI: > 100 µM
[3]
  TGI: > 100 µM
[6]
  TGI: > 100 µM
[4]
  TGI: > 100 µM
[7]
  TGI: > 100 µM

## c1ccc(SC(CCCCC(Sc2ccccc2)Sc2ccccc2)Sc2ccccc2)cc1
[1]
  TGI: > 100 µM
[5]
  TGI: > 100 µM
[2]
  TGI: > 100 µM
[3]
  TGI: > 100 µM
[4]
  TGI: > 100 µM
[7]
  TGI: > 100 µM

## Cc1c(C#N)c(=O)[nH]c(=O)n1CCN1CCN(C(=O)NCCCCCCNC(=O)N2CCN(CCn3c(C)c(C#N)c(=O)[nH]c3=O)CC2)CC1
[1]
  TGI: > 100 µM
[2]
  TGI: > 100 µM
[3]
  TGI: > 100 µM
[6]
  TGI: > 100 µM
[4]
  TGI: > 100 µM
[7]
  TGI: > 100 µM

## O=S(=O)(c1ccccc1)C(CN1CCCCC1)S(=O)(=O)c1ccccc1
[1]
  TGI: > 100 µM
[3]
  TGI: > 100 µM
[4]
  TGI: > 100 µM
[7]
  TGI: > 100 µM

## CNC(=O)OCc1c(COC(=O)NC)c(C)n(-c2ccc(Br)cc2)c1C
[8]
  TGI: 32 µM

## COC1CC(OS(=O)(=O)c2ccc(C)cc2)C(OC(=O)c2ccccc2)C(C)O1 (stereo unspecified)
[1]
  GI50: > 100 µM
  TGI: > 100 µM
[2]
  GI50: > 100 µM
  TGI: > 100 µM
[3]
  GI50: > 100 µM
  TGI: > 100 µM
[6]
  TGI: > 10 µM
[4]
  TGI: > 10 µM
[7]
  GI50: > 100 µM
  TGI: > 100 µM

## CCOC(=O)C(=O)Nc1c(CC)cccc1C(C)C
[1]
  TGI: > 100 µM
[2]
  TGI: > 100 µM
[3]
  TGI: > 100 µM
[4]
  TGI: > 100 µM
[7]
  TGI: > 100 µM

## O=C1OC(CCCl)(c2ccccc2)CC1CN1CCOCC1 (stereo unspecified)
[1]
  TGI: 33.7 µM
[2]
  TGI: 81.5 µM
[3]
  TGI: 34 µM
[7]
  TGI: > 100 µM

## COc1ccc(OC)c(NC(=O)CCC/C(CC(=O)c2ccc(O)c(OC)c2)=N\NC(=O)C[N+](C)(C)C)c1
[1]
  TGI: > 100 µM
[5]
  TGI: > 100 µM
[3]
  TGI: > 100 µM
[6]
  TGI: > 100 µM
[4]
  TGI: > 100 µM
[7]
  TGI: > 100 µM

## C[C@]12CCC3[C@@H](CC[C@@H]4c5nonc5CC[C@]34C)C1CCC(=O)N2 (stereo partly specified)
[1]
  TGI: > 100 µM
[5]
  TGI: > 100 µM
[2]
  TGI: > 100 µM
[6]
  TGI: > 100 µM
[4]
  TGI: > 100 µM
[7]
  TGI: > 100 µM

## Cc1cc(N(CCC#N)CCC#N)ccc1/C=C/C(=O)Nc1cccc(Cl)c1
[1]
  TGI: > 100 µM
[5]
  TGI: > 100 µM
[3]
  TGI: > 100 µM
[4]
  TGI: > 100 µM
[7]
  TGI: > 100 µM

## CCOC(=O)C(C)(c1cn(C)c2ccccc12)c1cn(C)c2ccccc12
[1]
  TGI: > 100 µM
[5]
  TGI: > 100 µM
[2]
  TGI: > 100 µM
[3]
  TGI: > 100 µM
[4]
  TGI: > 100 µM
[7]
  TGI: > 100 µM

## COc1ccc(C(OCC2OC(n3ccc(NC(=O)c4ccccc4)nc3=O)C(O)C2O)(c2ccccc2)c2ccccc2)cc1 (stereo unspecified)
[8]
  TGI: 3.79 µM

## CS(=O)(=O)Oc1cccc(/C=N/N=C(\N)NO)c1
[1]
  TGI: > 100 µM
[2]
  TGI: > 100 µM
[3]
  TGI: > 100 µM
[6]
  TGI: > 100 µM
[4]
  TGI: 65.8 µM

— PubChem BioAssay (NCI)
